# From paper PMC9748900, “Unconventional isoquinoline-based SERMs elicit fulvestrant-like transcriptional programs in ER+ breast cancer cells” (NPJ Breast Cancer, 2022)
# Entries after “also recorded” stand apart in the source; their conditions may differ. Where two headings read alike, the source gives them in different places.
# What was measured:
# [1] = system: Ishikawa endometrial cells; test: Alkaline phosphatase (AP) assay in Ishikawa cells; type: cell-based, human; conditions: 72 h; for AP1 Induction: 1 nM E2 or 1 μM compound, absorbance at 405 nm, mean + std. dev., n = 3-9
# From the text: SERM enhancement of ERα accumulation in breast cancer cells correlates with uterotrophic activities[22],[30]. Despite the inclusion of side arms from known SERDs, most T6Is appeared SERM-like in breast cancer cells as they increased ERα levels. To measure the SERM-agonist activities of the T6Is, we employed an AP activity assay in Ishikawa endometrial cells[22],[32],[40]. […] Many T6Is show unexpected AP activities in these cells. […] Therefore, we would expect these SERMs to show a greater induction of AP (Supplementary Fig. 5). […] This difference was significant (p = 0.004) compared to 4OHT, which measured 0.68 ± 0.12 absorbance units. In most studies of SERM-agonist activities, AP assays are combined with increases in uterine wet-weight in vivo[22],[41],[42].
# AP assays were performed as described. Briefly, 15,000 Ishikawa cells were seeded into 96-well plates then placed in serum-starved medium for 48–72 h. Cells were treated for three days with veh, hormone, SERM, or SERD. The media was aspirated and the cells were frozen at −80 °C for at least 24 h. Cells were thawed then incubated with p-nitrophenyl phosphate (ThermoFisher) chromogenic AP substrate. After 60 min at 40 °C, absorbance was read at 405 nm on a BioTek Cytation 5 plate reader.
# [2] = system: gene expression in T47D breast cancer cells; test: qPCR gene expression in T47D cells; type: cell-based; conditions: 1 μM + 1 nM E2, 16 h
# [3] = system: gene expression in MCF7:WS8 breast cancer cells; test: qPCR gene expression in MCF7:WS8 cells
# [4] = system: transcriptome of T47D breast cancer cells; test: RNA sequencing of T47D cells; type: cell-based
# Protocol: We next used RNA transcriptomic analysis (RNAseq) to identify differentially affected genes. […] All sequencing runs were performed with three replicates per treatment.
# T47D breast cancer cells were grown in 6-well dishes at 50,000 cells per well. […] After 24 h, they were placed in serum-starved media for 48 h. […] RNA was isolated using a Qiagen RNeasy Kit then sent to Novogene for sequencing and bioinformatics analysis.
# [5] = system: Ishikawa cells; test: Ishikawa cell count (endometrial proliferation); type: cell-based, human; conditions: 1 nM E2 or 1 μM antiestrogen, 144 h
# [6] = system: patients with advanced disease with prior hormone therapy; conditions: compared to standard of care ref 6, cited from earlier work
# [7] = system: T47D breast cancer cells; test: Cellular proliferation (label-free cell count), T47D; type: cell-based; conditions: 1 nM E2, normalized to vehicle
# Protocol: In addition, we used a crystal violet assay to measure the effect of T6I-14-1 on MCF7 viability.
# MCF7, MCF7:WS:8, Y537S ESR1 MCF7 and T47D breast cancer cell lines were grown in 96-well dishes at a starting cell count of 1000 cells per well. […] Cells were grown in a BioSpa attached to a BioTek Cytation 5 and were automatically counted every twelve hours for 7–10 days or until the E2-only wells reached confluence. Media was replaced every 4 days and drug was maintained in each media change. Each study was repeated three times with three technical replicates each.
# [8] = target: T1, ERα (Homo sapiens, UniProt P03372); test: In-cell Western of ERα levels in MCF7:WS8 cells; type: cell-based; set-up: endogenous in cells; conditions: MCF7:WS8, 1 μM, 24 h, compared to 4OHT
# T1 sequence (P03372 1-595): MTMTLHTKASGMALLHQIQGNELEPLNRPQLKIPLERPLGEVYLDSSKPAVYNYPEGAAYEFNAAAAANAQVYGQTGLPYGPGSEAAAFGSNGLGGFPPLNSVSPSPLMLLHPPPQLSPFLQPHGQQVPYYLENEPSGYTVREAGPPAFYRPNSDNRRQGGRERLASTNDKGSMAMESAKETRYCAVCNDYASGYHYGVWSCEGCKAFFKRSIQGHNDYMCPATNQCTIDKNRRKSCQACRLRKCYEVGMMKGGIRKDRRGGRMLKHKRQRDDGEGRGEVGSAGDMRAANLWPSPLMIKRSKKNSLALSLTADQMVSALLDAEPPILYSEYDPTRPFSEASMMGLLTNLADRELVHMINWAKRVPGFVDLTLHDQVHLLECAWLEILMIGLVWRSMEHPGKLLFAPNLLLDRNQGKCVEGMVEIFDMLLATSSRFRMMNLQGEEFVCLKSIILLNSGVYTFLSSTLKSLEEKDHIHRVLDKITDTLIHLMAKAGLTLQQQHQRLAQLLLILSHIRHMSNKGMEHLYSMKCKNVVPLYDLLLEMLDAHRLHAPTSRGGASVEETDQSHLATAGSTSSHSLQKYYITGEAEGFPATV
# From the text: SERMs and SERDs differentially affect ERα cellular lifetime/accumulation, which correlates with tissue-specific partial agonistic activities. SERMs increase WT ERα lifetime and are partial agonists in the bone and uterine epithelium by maintaining AF-1-dependent transcriptional coactivator recruitment. SERDs induce rapid WT ERα degradation and are pure antagonists[14],[17],[19],[22],[33]. […] We used an in-cell Western approach to measure how a subset of T6Is affected ERα levels in MCF7:WS8 breast cancer cells. […] A live cell halo-tagged ERα assay was then used to measure the impact of an expanded set of T6Is on receptor accumulation in T47D breast cancer cells after 24 h treatment. […] The difference between T6I-14 and 4OHT was not statistically significant in this assay. […] The IC50 values generally trended with observed differences in transcriptional IC50 (Fig. 2), while the effect at maximum dose varied greatly.
# In-cell Western analysis was performed in a similar manner as previously described. Briefly, T47D or MCF7:WS8 breast cancer cells were grown in blackout 96-well plates starting at 3000 cells per well. After 24 h, cells were placed in serum-starved media and allowed to acclimate for 48–72 h. Cells were treated with hormone, SERM, or SERD alongside vehicle control for 24 h. […] All data were collected on a LI-COR Odyssey DLx and analyzed using Emperia Studio. […]
# [9] = target: T1, ERα; test: ERE transcriptional reporter gene assay in MCF7 cells; type: cell-based; set-up: endogenous in cells; host or cells: MCF7 cells with 3x-ERE-GFP reporter
# Protocol: A cyclopropyl group was used in place of RAD1901’s ethylamine. […] We initially synthesized 4 derivatives comprised of different pharmacophores on the analogous steroidal A ring (Fig. 2d) and used an ERE reporter gene assay in MCF7 breast cancer cells to measure their transcriptional inhibitory activities.
# This assay was performed in accordance with a previous report. MCF7 breast cancer cells with a 3x-estrogen response element-green fluorescent protein (GFP) reporter gene construct under a CMV promoter were plated in 96-well dishes at 3000 cells per well. Cells were cultured for 48 h in stripped media that included charcoal stripped fetal bovine serum (FBS). Cells were treated with increasing concentrations of antiestrogen (5 pm to 1 µM) for 24 h. Subsequently, percent GFP-positive cells were imaged using a BioTek Cytation 5 live cell imager. All assays were performed three times with three technical replicates each.
# [10] = MCF7, 1 nM E2, read-out: Log(IC50) (converted)
smiles,measurement,setting,value
O=C(c1ccccc1)N1C(c2ccc(OCC3CN(CCCF)C3)cc2)c2ccc(O)cc2CC12CC2 (stereo not drawn) [T6I-4A],AP1 Induction,[1],0.69 + 0.16
same,AP induction (in words),[1]; 1 μM,significant induction of AP compared to the propylazetidine-containing T6I-4
CCCN1CCC(CNc2ccc(C3c4ccc(O)cc4CC4(CC4)N3C(=O)c3ccccc3)cc2)C1 (stereo not drawn) [T6I-NH],AP1 Induction,[1],0.50 + 0.09
"Oc1ccc2c(c1)CC[C@H](c1ccccc1)[C@@H]2c1ccc(OCCN2CCCC2)cc1 [Laso, lasofoxifene]",CDK1 mRNA,[2],slightly upregulated CDK1
same,RPS6KL1 mRNA,[2],only slightly enriched
same,cMYC mRNA,"[3]; MCF7:WS8, 1 μM + 1 nM E2",upregulated cMYC but it was significantly less (p = 0.02) than T6I-29-1A
same,AP1 Induction,[1],0.51 + 0.16
same,AP activity,[1]; 1 μM,0.51 ± 0.16 absorbance units
"C[C@]12CC[C@@H]3c4ccc(O)cc4CC[C@H]3[C@@H]1CC[C@@H]2O [E2, 17β-estradiol]",SUMO-related differentially expressed genes (RNAseq),[4],downregulates SUMO1 and upregulates desumoylating enzymes including SENP1 and SENP8
same,Ishikawa cell count,[5],robust enhancement of proliferation
CCCN1CC(COc2ccc(C3c4ccc(O)cc4CC4(CC4)N3C(=O)c3ccccc3)cc2)C1 (stereo not drawn) [T6I-4],AP1 Induction,[1],0.24 + 0.07
same,AP induction (in words),[1]; 1 μM,AP induction similar to a SERD; also recorded: no measurable AP1 activity
"CCNCCc1ccc(CN(CC)c2cc(OC)ccc2[C@@H]2CCc3cc(O)ccc3C2)cc1 [RAD1901, elacestrant]",CDK1 mRNA,[2],slightly upregulated CDK1
same,RPS6KL1 mRNA,[2],only slightly enriched
same,CDK1 mRNA,[3]; MCF7:WS8,downregulated its expression
same,AP1 Induction,[1],0.28 + 0.08
same,reduced risk of disease progression or death,[6]; all patients,30%
same,reduced risk of disease progression or death,"[6]; patients with ESR1 mutations, including the Y537S",45%
CCCCN1CCC(COc2ccc(C3c4ccc(O)cc4CC4(CC4)N3C(=O)c3ccccc3)cc2)C1 (stereo not drawn) [T6I-22],AP1 Induction,[1],0.55 + 0.06
CCN1CC(COc2ccc(C3c4ccc(O)cc4CC4(CC4)N3C(=O)c3ccccc3)cc2)C1 (stereo not drawn) [T6I-3],AP1 Induction,[1],0.34 + 0.07
same,"anti-proliferative activity, cell count after 7 days (Fig. 7)",[7],did not improve anti-proliferative activities
CCCN1CCC(CCc2ccc(C3c4ccc(O)cc4CC4(CC4)N3C(=O)c3ccccc3)cc2)C1 (stereo not drawn) [T6I-Me],AP1 Induction,[1],0.57 + 0.08
O=C(c1ccccc1)N1C(c2ccc(OCC3CCN(CCCF)C3)cc2)c2ccc(O)cc2CC12CC2 (stereo not drawn) [T6I-29],AP1 Induction,[1],0.63 + 0.08
same,AP induction (in words),[1]; 1 μM,greater induction of AP1 compared to its separated chiral species
same,"anti-proliferative activity, cell count after 7 days (Fig. 7)",[7],slightly improved efficacy versus propyl alone
CCCN1CCC(COc2ccc(C3c4ccc(O)cc4CC4(CC4)N3C(=O)c3ccccc3)cc2)C1 (stereo not drawn) [T6I-14],ERα levels by in-cell Western,[8],significant enhancement
CCCN1CCC(CSc2ccc(C3c4ccc(O)cc4CC4(CC4)N3C(=O)c3ccccc3)cc2)C1 (stereo not drawn) [T6I-SH],AP1 Induction,[1],0.42 + 0.07
O=C(c1ccccc1)N1C(c2ccc(OCC3CN(CCCCl)C3)cc2)c2ccc(O)cc2CC12CC2 (stereo not drawn) [T6I-4B],AP1 Induction,[1],0.61 + 0.10
same,AP induction (in words),[1]; 1 μM,significant induction of AP compared to the propylazetidine-containing T6I-4
CCCCCN1CCC(COc2ccc(C3c4ccc(O)cc4CC4(CC4)N3C(=O)c3ccccc3)cc2)C1 (stereo not drawn) [T6I-23],AP1 Induction,[1],0.44 + 0.08
O=C(c1ccccc1)N1C(c2ccc(OCCN3CCCC3)cc2)c2ccc(O)cc2CC12CC2 (stereo not drawn) [T6I-1D],IC50,[9]; [10],123 nM
same,IC50,"[9]; MCF7, 1 nM E2, read-out: anti-transcriptional IC50",~100 nM
"CC/C(=C(\c1ccc(O)cc1)c1ccc(OCCN(C)C)cc1)c1ccccc1 [4OHT, 4-hydroxytamoxifen, reference compound]",AP1 Induction,[1],0.67 + 0.12
same,AP induction (in words),[1]; 1 μM,robust stimulation of AP activity
same,Ishikawa cell count,[5],marginal but insignificant increase to cell count
O=C(CC(F)(F)F)N1C(c2ccc(OCCN3CCCC3)cc2)c2ccc(O)cc2CC12CC2 (stereo not drawn) [T6I-1C],IC50,[9]; [10],170 nM
